The assay has as its system L1210 leukemia ip in BDF1 mice, survival T/C. Briefly: NCI In Vivo Anticancer Drug Screen. Data for tumor model L1210 Leukemia (intraperitoneal) in B6D2F1 (BDF1) mice. The following applies: endpoint: mean survival time, higher = longer survival. The procedure, abridged:
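Antitumor effect is assessed in tumor-bearing animals. Survival in the compound arm is compared with a vehicle-dosed control arm and expressed as their quotient.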

Setting [1] is: dose: 100.0 mg/kg/injection, schedule: Q01DX001 (ip), vehicle: carboxymethylcellulose (CMC).
The mark [2] stands for this setting: dose: 200.0 mg/kg/injection, schedule: Q01DX009 (ip), vehicle: Klucel (hydroxypropylcellulose) (HPC).
The mark [3] stands for this setting: dose: 100.0 mg/kg/injection, schedule: Q04DX003 (ip), vehicle: saline with Tween-80.
The mark [4] stands for this setting: dose: 200.0 mg/kg/injection, schedule: Q04DX003 (ip), vehicle: saline with Tween-80.
Where [5] appears, read: dose: 100.0 mg/kg/injection, schedule: Q01DX001 (ip), vehicle: saline.
Setting [6] is: dose: 25.0 mg/kg/injection, schedule: Q01DX009 (ip), vehicle: water.
Setting [7] is: dose: 50.0 mg/kg/injection, schedule: Q01DX009 (ip), vehicle: water.
Where [8] appears, read: dose: 100.0 mg/kg/injection, schedule: Q01DX009 (ip), vehicle: water.
Where [9] appears, read: dose: 100.0 mg/kg/injection, schedule: Q04DX002 (ip), vehicle: Klucel (hydroxypropylcellulose) (HPC).
Setting [10] is: dose: 200.0 mg/kg/injection, schedule: Q04DX002 (ip), vehicle: Klucel (hydroxypropylcellulose) (HPC).
The mark [11] stands for this setting: dose: 400.0 mg/kg/injection, schedule: Q04DX002 (ip), vehicle: Klucel (hydroxypropylcellulose) (HPC).

Structures are written as SMILES. Values joined by “and” are separate entries in the source; they are usually repeats but may differ in a detail not shown here. Equal entries are not always repeated. Toxic doses and inconclusive results are not listed.

As for `C=CCN(CC=C)P(N(CC=C)CC=C)N(CC=C)CC=C`, the T/C is 98 % of control (dose: 75.0 mg/kg/injection, schedule: Q01DX009 (ip), vehicle: saline) and 96 % of control (dose: 150.0 mg/kg/injection, schedule: Q01DX009 (ip), vehicle: saline).
In the case of `ONc1nc(NO)c2[nH]cnc2n1`, the T/C is 109 % of control (dose: 0.25 mg/kg/injection, schedule: Q01DX009 (ip), vehicle: other); 115 % of control (dose: 1.2 mg/kg/injection, schedule: Q01DX009 (ip), vehicle: carboxymethylcellulose (CMC)); 165 % of control (dose: 2.5 mg/kg/injection, schedule: Q01DX009 (ip), vehicle: other); 150 % of control (dose: 3.7 mg/kg/injection, schedule: Q01DX009 (ip), vehicle: carboxymethylcellulose (CMC)); 202 % of control (dose: 5.0 mg/kg/injection, schedule: Q01DX009 (ip), vehicle: other); 210 % of control (dose: 10.0 mg/kg/injection, schedule: Q01DX009 (ip), vehicle: other). Besides, the T/C reads like this: (dose: 10.5 mg/kg/injection, schedule: Q01DX009 (ip), vehicle: other) 203 % of control; (dose: 18.0 mg/kg/injection, schedule: Q01DX009 (ip), vehicle: other) 265 % of control; (dose: 18.7 mg/kg/injection, schedule: Q01DX009 (oral), vehicle: carboxymethylcellulose (CMC)) 114 % of control; (dose: 30.0 mg/kg/injection, schedule: Q01DX009 (ip), vehicle: carboxymethylcellulose (CMC)) 150 % of control; (dose: 30.0 mg/kg/injection, schedule: Q01DX009 (ip), vehicle: other) 192 % of control; (dose: 44.0 mg/kg/injection, schedule: Q01DX001 (ip), vehicle: carboxymethylcellulose (CMC)) 154 % of control. Further, the T/C runs as follows: (dose: 60.0 mg/kg/injection, schedule: Q01DX009 (ip), vehicle: carboxymethylcellulose (CMC)) 150 % of control and 153 % of control; (dose: 66.0 mg/kg/injection, schedule: Q01DX001 (ip), vehicle: carboxymethylcellulose (CMC)) 172 % of control; (dose: 75.0 mg/kg/injection, schedule: Q01DX009 (oral), vehicle: carboxymethylcellulose (CMC)) 122 % of control; under setting [1], 175 % of control; (dose: 150.0 mg/kg/injection, schedule: Q01DX001 (ip), vehicle: carboxymethylcellulose (CMC)) 214 % of control.
Consider `COc1cc2c(cc1OC)C1CC(=O)CCN1CC2` (stereo not drawn), for which the T/C under setting [2] is 101 % of control.
Take `Cc1nc(C)c(Br)s1`: the T/C is, setting by setting: (dose: 25.0 mg/kg/injection, schedule: Q01DX009 (ip), vehicle: saline with Tween-80) 97 % of control; (dose: 50.0 mg/kg/injection, schedule: Q01DX009 (ip), vehicle: saline with Tween-80) 96 % of control; (dose: 100.0 mg/kg/injection, schedule: Q01DX009 (ip), vehicle: saline with Tween-80) 112 % of control; under setting [3], 105 % of control; under setting [4], 110 % of control.
For `Nc1ccc(CCc2ccccc2)c(C(=O)O)c1`, the T/C (dose: 50.0 mg/kg/injection, schedule: Q04DX003 (ip), vehicle: saline) was 104 % of control; the T/C (dose: 100.0 mg/kg/injection, schedule: Q04DX003 (ip), vehicle: saline) is 110 % of control; the T/C (dose: 200.0 mg/kg/injection, schedule: Q04DX003 (ip), vehicle: saline) is 96 % of control.
Take `NC(=O)/C(=C\c1ccncc1)c1cccc2ccccc12`: the T/C was 97 % of control (dose: 100.0 mg/kg/injection, schedule: Q01DX009 (ip), vehicle: Klucel (hydroxypropylcellulose) (HPC)); 108 % of control under setting [3]; 97 % of control under setting [2]; 88 % of control under setting [4].
As to `Cc1nc(N)n(C)n1`, the T/C was 104 % of control (dose: 100.0 mg/kg/injection, schedule: Q04DX002 (ip), vehicle: saline); 101 % of control (dose: 200.0 mg/kg/injection, schedule: Q04DX002 (ip), vehicle: saline); 101 % of control (dose: 400.0 mg/kg/injection, schedule: Q04DX002 (ip), vehicle: saline).
Consider `CCCCC(C)(CCN)CCCC`, for which the T/C was 88 % of control (dose: 4.0 mg/kg/injection, schedule: Q01DX015 (ip), vehicle: carboxymethylcellulose (CMC)); 96 % of control (dose: 8.0 mg/kg/injection, schedule: Q01DX015 (ip), vehicle: carboxymethylcellulose (CMC)); 107 % of control (dose: 16.0 mg/kg/injection, schedule: Q01DX015 (ip), vehicle: carboxymethylcellulose (CMC)); 90 % of control (dose: 32.0 mg/kg/injection, schedule: Q01DX015 (ip), vehicle: carboxymethylcellulose (CMC)); 100 % of control (dose: 48.0 mg/kg/injection, schedule: Q01DX015 (ip), vehicle: carboxymethylcellulose (CMC)); 111 % of control (dose: 50.0 mg/kg/injection, schedule: Q01DX001 (ip), vehicle: carboxymethylcellulose (CMC)). For the same compound, the T/C reads like this: (dose: 64.0 mg/kg/injection, schedule: Q01DX015 (ip), vehicle: carboxymethylcellulose (CMC)) 93 % of control; under setting [1], 96 % of control; (dose: 100.0 mg/kg/injection, schedule: Q01DX015 (ip), vehicle: carboxymethylcellulose (CMC)) 98 % of control; (dose: 150.0 mg/kg/injection, schedule: Q01DX015 (ip), vehicle: carboxymethylcellulose (CMC)) 100 % of control; (dose: 200.0 mg/kg/injection, schedule: Q01DX001 (ip), vehicle: carboxymethylcellulose (CMC)) 102 % of control; (dose: 400.0 mg/kg/injection, schedule: Q01DX001 (ip), vehicle: carboxymethylcellulose (CMC)) 113 % of control.
For `CC(C)OC(=O)C#CC(=O)O`, the T/C under setting [5] is 98 % of control.
As to `O=CN1CCCC1C(=O)O` (stereo not drawn), the T/C under setting [6] is 98 % of control; the T/C under setting [7] was 101 % of control; the T/C under setting [8] was 95 % of control; the T/C (dose: 200.0 mg/kg/injection, schedule: Q01DX009 (ip), vehicle: water) is 101 % of control.
`Cc1ccc(C)c(C(=O)c2ccccc2C(=O)O)c1`: the T/C is 101 % of control (dose: 10.0 mg/kg/injection, schedule: Q01DX009 (ip), vehicle: saline); 98 % of control (dose: 100.0 mg/kg/injection, schedule: Q01DX009 (ip), vehicle: saline sonified); 90 % of control under setting [3]; 94 % of control (dose: 200.0 mg/kg/injection, schedule: Q01DX009 (ip), vehicle: saline sonified); 103 % of control (dose: 200.0 mg/kg/injection, schedule: Q01DX009 (ip), vehicle: saline); 94 % of control under setting [4]. The T/C runs as follows: (dose: 400.0 mg/kg/injection, schedule: Q01DX009 (ip), vehicle: saline sonified) 105 % of control; (dose: 400.0 mg/kg/injection, schedule: Q01DX009 (ip), vehicle: saline) 98 % of control; (dose: 400.0 mg/kg/injection, schedule: Q04DX003 (ip), vehicle: saline with Tween-80) 90 % of control.
Turning to `CC(C)(C)C(=O)CC(=O)C(C)(C)C.CC(C)(C)C(=O)CC(=O)C(C)(C)C.CC(C)(C)C(=O)CC(=O)C(C)(C)C.[Eu]`, the T/C is, setting by setting: under setting [9], 97 % of control; under setting [10], 106 % of control; under setting [11], 87 % of control.
In the case of `O=C(Nc1ccccc1Br)c1ccc(Cl)cc1Cl`, the T/C is, setting by setting: (dose: 75.0 mg/kg/injection, schedule: Q01DX009 (ip), vehicle: Klucel (hydroxypropylcellulose) (HPC)) 96 % of control; under setting [9], 93 % of control; (dose: 150.0 mg/kg/injection, schedule: Q01DX009 (ip), vehicle: Klucel (hydroxypropylcellulose) (HPC)) 96 % of control; under setting [10], 107 % of control; (dose: 300.0 mg/kg/injection, schedule: Q01DX009 (ip), vehicle: Klucel (hydroxypropylcellulose) (HPC)) 100 % of control; under setting [11], 97 % of control.
Turning to `Cc1nn(C2CC(O)C(CO)O2)c(=O)[nH]c1=O` (stereo not drawn), the T/C by setting is: under setting [5], 98 % of control; (dose: 200.0 mg/kg/injection, schedule: Q01DX001 (ip), vehicle: saline) 95 % of control; (dose: 400.0 mg/kg/injection, schedule: Q01DX001 (ip), vehicle: saline) 93 % of control.
For `CCN(CC)CCCC(C)NC(=O)c1cccc2c([N+](=O)[O-])cccc12` (stereo not drawn), the T/C under setting [6] is 100 % of control, the T/C under setting [7] is 108 % of control and the T/C under setting [8] is 103 % of control.
Turning to `Cc1nc(-c2ccc3ccc4cccnc4c3n2)no1`, the T/C by setting is: (dose: 50.0 mg/kg/injection, schedule: Q04DX003 (ip), vehicle: saline with Tween-80) 93 % of control; under setting [4], 86 % of control.

Values taken from PubChem BioAssay AID248 (DTP/NCI, 2004).
